Measured values: US11531207B2, “Devices, apparatus and method for providing photostimulation and imaging of structures” (The Trustees of Columbia University in the City of New York, priority 2008, dated 2022)

Test system: glia
Experiment: dual labeling of cortical slices with mag-Indo-1AM and sulforhodamine (neurons vs glia)
Format: cell-based, mice
Conditions: 145/2555; n=4 slices; neocortical slices
Experimental: FIGS. 9(a)-9(d) are exemplary images mag-Indo-1-AM loads mostly neurons in which slices are simultaneously loaded with mag-Indo1-AM and Sulforhodamine 101 (e.g., SR101, 20 μM) and imaged at their respective exemplary wavelengths;
(See A. Nimmerjahn, F. Kirchhoff, J. N. Kerr et al., Nat Methods 1 (1), 31 (2004)). For example, 5.7±1.56% (145/2555; n=4 slices) of mag-Indo-1AM loaded cells can also be loaded with sulforhodamine, and only 8.1 t 2.59% (145/1786, n=4 slices) of sulforhodamine-loaded cells can also be loaded with mag-Indo-1AM.
Coronal neocortical slices can be prepared from, e.g., P12-15 C57/BL6 mice or somatostatin-GFP mice (see A. A. Oliva, Jr., M. Jiang, T. Lam et al., J Neurosci 20 (9), 3354 (2000)) (e.g., Jackson Laboratory, Bar Harbor, Me.) with a vibratome (e.g., VT1000S; Leica, Nussloch, Germany). 300 μm thick slices can be cut in ice-cold oxygenated modified ACSF that can include 1 mM CaCl2 and 3 mM MgSO4, in which NaCl can be replaced by an equimolar concentration of sucrose (in mM): 27 NaHCO3, 1.5 NaH2PO4, 222 Sucrose, 2.6 KCl. Slices can then be placed in oxygenated standard ACSF at 37° C. for 30 min. For AM-loading, slices can be deposited onto the bottom of a small Petri dish (35×10 mm) filled with 2 ml of ACSF, ventilated with 95% O2/5% CO2 and placed in a slide warmer at 37° C. (Fisher Scientific, Waltham Mass.). […]

mag-Indo-1AM
mag-Indo-1AM loaded cells also loaded with sulforhodamine: 5.7±1.56%
